Literature values in patent US12178814B2, “Pharmaceutical composition” (ASTELLAS PHARMA INC., priority 2019, dated 2024).

Test system: EML4 (Echinoderm microtubule associated protein like-4)-ALK (Anaplastic lymphoma kinase) fusion protein
Details: reported in WO2010/128659, WO2017/006855

inhibitory activity of a kinase activity of EML4-ALK fusion protein: inhibitory activity
SMILES: CCc1nc(C(N)=O)c(Nc2ccc(N3CCC(N4CCN(C)CC4)CC3)c(OC)c2)nc1NC1CCOCC1 [gilteritinib, 6-Ethyl-3-{3-methoxy-4-[4-(4-methylpiperazin-1-yl)piperidin-1-yl]anilino}-5-[(oxan-4-yl)amino]pyrazine-2-carboxamide]
